Measured values from publication PMC10643420, “A glutamate-gated chloride channel as the mite-specific target-site of dicofol and other diphenylcarbinol acaricides” (Communications Biology, 2023).

Key:
Type in all cases: cell-based
[1] = molecular target: T1, TuGluCl3 (glutamate-gated chloride channel 3) (Tetranychus urticae, UniProt T1KFH0); experiment: two-electrode voltage clamp in Xenopus oocytes; agonist, also potentiates glutamate currents
T1 construct: gene 107363680; homomeric WT TuGluCl3 receptor expressed in Xenopus laevis oocytes
T1 sequence (T1KFH0 36-542): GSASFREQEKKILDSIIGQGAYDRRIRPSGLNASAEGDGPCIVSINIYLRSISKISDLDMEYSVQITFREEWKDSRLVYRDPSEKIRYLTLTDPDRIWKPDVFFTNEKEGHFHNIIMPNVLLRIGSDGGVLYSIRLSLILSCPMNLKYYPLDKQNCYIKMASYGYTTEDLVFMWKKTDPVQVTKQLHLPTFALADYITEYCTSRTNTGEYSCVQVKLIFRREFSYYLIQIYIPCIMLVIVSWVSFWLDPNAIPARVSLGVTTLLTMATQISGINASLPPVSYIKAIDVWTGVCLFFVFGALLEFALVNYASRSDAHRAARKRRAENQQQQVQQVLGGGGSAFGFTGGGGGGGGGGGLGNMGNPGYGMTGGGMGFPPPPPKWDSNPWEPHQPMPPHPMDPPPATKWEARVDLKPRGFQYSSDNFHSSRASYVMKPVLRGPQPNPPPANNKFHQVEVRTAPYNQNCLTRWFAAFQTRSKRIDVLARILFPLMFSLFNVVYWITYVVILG

[2] = molecular target: T2, TuGluCl3 (glutamate-gated chloride channel 3) (Tetranychus urticae, UniProt T1KFH0, G326E); experiment: two-electrode voltage clamp in Xenopus oocytes at […] (natural agonist)
T2 construct: gene 107363680; homomeric TuGluCl3 G326E receptor expressed in Xenopus laevis oocytes

[3] = molecular target: T1, TuGluCl3 (glutamate-gated chloride channel 3); experiment: as above

With `CC(C)OC(=O)C(O)(c1ccc(Br)cc1)c1ccc(Br)cc1` [bromopropylate] the EC50 [1] was 3.23 µM.

In the case of `N[C@@H](CCC(=O)O)C(=O)O` [L-glutamic acid], the “two-electrode voltage clamp in Xenopus oocytes at 500 μM (natural agonist)” value [2] is reported as “both TuGluCl3 receptors showed clear responses to L-Glu” and the “two-electrode voltage clamp in Xenopus oocytes at 500 μM (natural agonist)” value [3] is reported as “both TuGluCl3 receptors showed clear responses to L-Glu”.

With `CCOC(=O)C(O)(c1ccc(Cl)cc1)c1ccc(Cl)cc1` [chlorobenzilate] the EC50 [1] was 2.78 µM.

`OC(c1ccc(Cl)cc1)(c1ccc(Cl)cc1)C(Cl)(Cl)Cl` [dicofol, 2,2,2-trichloro-1,1-bis(4-chlorophenyl)ethanol] showed an EC50 [1] of 3.58 µM.
